Patent publication US20220380801A1, “TRIPARTITE SYSTEMS FOR PROTEIN DIMERIZATION AND METHODS OF USE” (priority 2019, published 2022)

Key:
[1] = tested on: HEK293 cells stably expressing the PRSIM-based kill switch; assay: Kill switch cell viability (phase contrast); format: cell-based, human; details: 100 nM simeprevir
Procedure: Lentiviral particles encoding the kill switch fusion protein (SEQ ID NO: 223) or kill switch S196A mutant fusion protein (SEQ ID NO: 230) were generated using pPACKH1 HIV lentiviral packaging kit (Systems Bioscience), according to manufacturer's instructions. HEK293 cells were transduced for 24 h in the presence of 8 μg/ml polybrene after which cells were changed into fresh growth medium (DMEM+10% foetal bovine serum+1% Non-essential amino acids). 24 h later transduced cells were selected by addition of 2 μg/ml puromycin for 5 days. Before functional testing, transduced cell pools were FACS sorted based on GFP fluorescence to isolate high expressing cell line pools and single cell clones.
HEK293, HCT116 or HT29 cells stably expressing the PRSIM-based kill switch fusion protein (SEQ ID NO: 223) or HEK293 cells stably expressing the PRSIM kill switch S196A mutant fusion protein (SEQ ID NO: 230) were plated onto collagen-coated 96-well plates and 24 h later treated with 100 nM simeprevir. Phase contrast images were acquired at various timepoints using 10× or 20× objectives on an Incucyte Zoom (EssenBioscience).

[2] = tested on: endogenous IL-2 gene in HEK293 cells; assay: Endogenous gene regulation assay (CRISPRa); format: cell-based, human; details: 300 nM simeprevir, split dCas9/AD cassette and IL-2 targeted gRNA
From the text: CRISPRa relies on the use of a dead Cas9 enzyme (dCas9) with no endonuclease activity to bind to a target site within the promoter region of an endogenous gene via a single guide RNA. Upon recruitment of a transcriptional activator, transcription of the endogenous gene is initiated.
The dCas9 and AD are separately fused to the two protein components of the CID such that, only in the presence of the small molecule inducer, the AD is brought into close proximity to dCas9, allowing recruitment of the transcription machinery to the promoter region of an endogenous gene via a single guide RNA (sgRNA). In this example, an activation plasmid was generated consisting of two functional units; an AD fused to the HCV NS3/4A PR (S139A) (SEQ ID 226) and a dCas9 fused to three tandem copies of PRSIM-23 (SEQ ID 228). The sequences are preceded by a CMV promoter and separated by an internal ribosome entry site (IRES). A gRNA plasmid was generated by golden gate assembly, utilising BsaI. […]
Transcriptional regulation assays were performed in adherent HEK293 cells cultured in 96-well plates. Cells enzymatically dissociated from a tissue culture flask were counted and plated at 2.5×10^4 cells/well. […] 72 hours post-treatment (day 6), the cell supernatant was harvested and IL-2 quantified using a V-PLEX Human IL-2 Kit (Meso Scale Discovery), as per the manufacturer's protocol.

[3] = molecular target: HCV NS3/4A D168E PR (Hepatitis C virus subtype 1a, UniProt A8DG50, A1066T/D1194E/I1043Q/I1044E/L1039E/L1040E/L1047Q/S1165A, form not given); assay: Octet RED384 simeprevir affinity; format: binding
Procedure: (§1) The biotinylated HCV NS3/4A PR (S139A), HCV NS3/4A K136D PR, HCV NS3/4A K136N PR and HCV NS3/4A D168E PR were loaded on High Precision Streptavidin (SAX) biosensors at a concentration of 2 μg/ml in 10 mM Hepes pH 7.4, 150 mM NaCl, 0.05% Surfactant P20, 0.3% DMSO. The simeprevir was diluted […] (46.88-3,000 nM) in the same buffer and the loaded biosensors were dipped into the simeprevir samples for 180 sec to measure the association. For the dissociation the biosensors were dipped into the buffer for 600 sec. The traces were analysed using ForteBio Data Analysis software and fit globally using a 1:1 binding model.

[4] = molecular target: HCV NS3/4A PR (S139A) (Hepatitis C virus subtype 1a, UniProt A8DG50, A1066T/I1043Q/I1044E/L1039E/L1040E/L1047Q/S1165A, form not given); assay: Octet RED384 simeprevir affinity; format: binding; details: WT (S139A)
Procedure: as §1

[5] = molecular target: HCV NS3/4A K136D PR (Hepatitis C virus subtype 1a, UniProt A8DG50, A1066T/I1043Q/I1044E/K1162D/L1039E/L1040E/L1047Q/S1165A, form not given); assay: Octet RED384 simeprevir affinity; format: binding
Procedure: as §1

[6] = molecular target: HCV NS3/4A K136N PR (Hepatitis C virus subtype 1a, UniProt A8DG50, A1066T/I1043Q/I1044E/K1162N/L1039E/L1040E/L1047Q/S1165A, form not given); assay: Octet RED384 simeprevir affinity; format: binding
Procedure: as §1

**Q.** What does the source list for COc1ccc2c(O[C@@H]3C[C@H]4C(=O)N[C@]5(C(=O)NS(=O)(=O)C6CC6)C[C@H]5/C=C\CCCCN(C)C(=O)[C@@H]4C3)cc(-c3nc(C(C)C)cs3)nc2c1C [simeprevir]?
**A.** cell killing ([1]; kill switch S196A): rapid cell killing in a timeframe comparable to the wt kill switch; cell death ([1]; wt kill switch): rapid cell death; IL-2 secretion [2]: resulted in secretion of IL-2; Kd [3]: 33 nM; decreased simeprevir affinity compared to ‘WT’ (S139A) [3]: ~2 fold; koff [3]: 0.000665 s⁻¹; kon [3]: 20000 M⁻¹ s⁻¹; Kd [4]: 17.8 nM; koff [4]: 0.000495 s⁻¹; kon [4]: 27800 M⁻¹ s⁻¹; Kd [5]: 62.6 nM; decreased simeprevir affinity compared to ‘WT’ (S139A) [5]: ~3.5 fold; koff [5]: 0.00234 s⁻¹; kon [5]: 36200 M⁻¹ s⁻¹; Kd [6]: 31.5 nM; decreased simeprevir affinity compared to ‘WT’ (S139A) [6]: ~2 fold; koff [6]: 0.00107 s⁻¹; kon [6]: 33800 M⁻¹ s⁻¹
